Literature values as cited in patent publication US12165861B2, “Mass spectrometry method for measuring vitamin B6 in body fluid” (Quest Diagnostics Investments Incorporated, priority 2007, dated 2024).

time to plasma peak (100 mg of vitamin B6, under normal conditions): 2 h
half-life (100 mg of vitamin B6, under normal conditions, plasma): 8 h
change in plasma PLP (doses of over 25 mg): little change
Substance: vitamin B6
